{"source": "patent US8329645B2", "about": "“Polymyxin derivatives and uses thereof” (priority 2008, dated 2012)", "key": {"K. oxytoca CCUG51683": {"tested_on": "K. oxytoca CCUG51683", "experiment": "E-test MIC with or without NAB7061 (4 μg/ml), Mueller-Hinton agar", "format": "cell-based, Klebsiella oxytoca", "description": "(§1) MICs were determined by using E-strips (Biodisk Ltd., Solna, Sweden) according to the manufacturer's instructions.\n(§2) The strains originated from ATCC (11 strains), CCUG (11 strains), and NCTC (The National Collection of Type Cultures, Colindale, U.K.; 2 strains). Eight strains (the F-strains) were purchased from Mobidiag Ltd., Helsinki, Finland."}, "K. oxytoca ATCC13182": {"tested_on": "K. oxytoca ATCC13182", "experiment": "E-test MIC with or without NAB7061 (4 μg/ml), Mueller-Hinton agar", "format": "cell-based, Klebsiella oxytoca", "description": "as §1, §2"}, "P. mirabilis ATCC29906": {"tested_on": "P. mirabilis ATCC29906", "experiment": "E-test MIC with or without NAB7061 (4 μg/ml), Mueller-Hinton agar", "format": "cell-based, Proteus mirabilis", "description": "as §1, §2"}, "S. marcescens ATCC8100": {"tested_on": "S. marcescens ATCC8100", "experiment": "E-test MIC with or without NAB7061 (4 μg/ml), Mueller-Hinton agar", "format": "cell-based, Serratia marcescens", "description": "as §1, §2"}, "C. freundii ATCC8090": {"tested_on": "C. freundii ATCC8090", "experiment": "E-test MIC with or without NAB7061 (4 μg/ml), Mueller-Hinton agar", "format": "cell-based, Citrobacter freundii", "description": "as §1, §2"}, "K. pneumoniae ATCC13883": {"tested_on": "K. pneumoniae ATCC13883", "details": "K. pneumoniae ATCC13883", "outline": "(§3)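 E-strip MIC determination, run as instructed by the manufacturer.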"}, "E. coli ATCC25922": {"tested_on": "E. coli ATCC25922", "details": "E. coli ATCC25922", "outline": "as §3"}, "Ac. baumannii ATCC19606": {"tested_on": "Ac. baumannii ATCC19606", "experiment": "E-test MIC with or without NAB7061 (4 μg/ml), Mueller-Hinton agar", "format": "cell-based, Acinetobacter baumannii", "details": "Ac. baumannii ATCC19606", "description": "as §1, §2"}, "Ac. baumannii F263": {"tested_on": "Ac. baumannii F263", "experiment": "E-test MIC with or without NAB7061 (4 μg/ml), Mueller-Hinton agar", "format": "cell-based, Acinetobacter baumannii", "details": "Ac. baumannii F263", "description": "as §1, §2"}, "Ac. baumannii F264": {"tested_on": "Ac. baumannii F264", "experiment": "E-test MIC with or without NAB7061 (4 μg/ml), Mueller-Hinton agar", "format": "cell-based, Acinetobacter baumannii", "details": "Ac. baumannii F264", "description": "as §1, §2"}, "E. coli CCUG41424": {"tested_on": "E. coli CCUG41424", "experiment": "E-test MIC with or without NAB7061 (4 μg/ml), Mueller-Hinton agar", "format": "cell-based, Escherichia coli", "outline": "as §3"}, "E. coli CCUG41432": {"tested_on": "E. coli CCUG41432", "experiment": "E-test MIC with or without NAB7061 (4 μg/ml), Mueller-Hinton agar", "format": "cell-based, Escherichia coli", "outline": "as §3"}, "E. coli CCUG41425": {"tested_on": "E. coli CCUG41425", "experiment": "E-test MIC with or without NAB7061 (4 μg/ml), Mueller-Hinton agar", "format": "cell-based, Escherichia coli", "outline": "as §3"}, "E. coli NCTC13353": {"tested_on": "E. coli NCTC13353", "experiment": "E-test MIC with or without NAB7061 (4 μg/ml), Mueller-Hinton agar", "format": "cell-based, Escherichia coli", "outline": "as §3"}, "E. coli CCUG41427": {"tested_on": "E. coli CCUG41427", "experiment": "E-test MIC with or without NAB7061 (4 μg/ml), Mueller-Hinton agar", "format": "cell-based, Escherichia coli", "outline": "as §3"}, "E. coli CCUG41429": {"tested_on": "E. coli CCUG41429", "experiment": "E-test MIC with or without NAB7061 (4 μg/ml), Mueller-Hinton agar", "format": "cell-based, Escherichia coli", "outline": "as §3"}, "E. coli NCTC13351": {"tested_on": "E. coli NCTC13351", "experiment": "E-test MIC with or without NAB7061 (4 μg/ml), Mueller-Hinton agar", "format": "cell-based, Escherichia coli", "outline": "as §3"}, "E. coli CCUG41421": {"tested_on": "E. coli CCUG41421", "experiment": "E-test MIC with or without NAB7061 (4 μg/ml), Mueller-Hinton agar", "format": "cell-based, Escherichia coli", "outline": "as §3"}, "E. coli CCUG41422": {"tested_on": "E. coli CCUG41422", "experiment": "E-test MIC with or without NAB7061 (4 μg/ml), Mueller-Hinton agar", "format": "cell-based, Escherichia coli", "outline": "as §3"}, "E. coli IH3080": {"tested_on": "E. coli IH3080", "experiment": "E-test MIC with or without NAB7061 (4 μg/ml), Mueller-Hinton agar", "format": "cell-based, Escherichia coli", "outline": "as §3"}, "A. baumannii F264": {"tested_on": "A. baumannii F264", "experiment": "E-test MIC of antibiotics on Mueller Hinton agar containing increasing concentrations of NAB739", "format": "cell-based, Acinetobacter baumannii"}}, "data": [{"smiles": "CO[C@H]1/C=C/O[C@@]2(C)Oc3c(C)c(O)c4c(O)c(c(/C=N/N5CCN(C)CC5)c(O)c4c3C2=O)NC(=O)/C(C)=C\\C=C\\[C@H](C)[C@H](O)[C@@H](C)[C@@H](O)[C@@H](C)[C@H](OC(C)=O)[C@@H]1C", "note": "[Rifampin]", "values": [{"measurement": "MIC of antibiotic in the presence of 4 μg/ml of NAB 7061", "setting": "K. oxytoca CCUG51683", "value": "0.012 to 0.023", "unit": "mg/L"}, {"measurement": "Sensitization factor to antibiotic (MIC without / with 4 μg/ml of NAB 7061)", "setting": "K. oxytoca CCUG51683", "value": "700-2000"}, {"measurement": "MIC of antibiotic in the presence of 4 μg/ml of NAB 7061", "setting": "K. oxytoca ATCC13182", "value": "0.032 to 0.047", "unit": "mg/L"}, {"measurement": "Sensitization factor to antibiotic (MIC without / with 4 μg/ml of NAB 7061)", "setting": "K. oxytoca ATCC13182", "value": "680-750"}, {"measurement": "MIC of antibiotic in the presence of 4 μg/ml of NAB 7061", "setting": "P. mirabilis ATCC29906", "value": "1 to 6", "unit": "mg/L"}, {"measurement": "Sensitization factor to antibiotic (MIC without / with 4 μg/ml of NAB 7061)", "setting": "P. mirabilis ATCC29906", "value": "<2"}, {"measurement": "MIC of antibiotic in the presence of 4 μg/ml of NAB 7061", "setting": "S. marcescens ATCC8100", "value": 16, "unit": "mg/L"}, {"measurement": "Sensitization factor to antibiotic (MIC without / with 4 μg/ml of NAB 7061)", "setting": "S. marcescens ATCC8100", "value": "<2"}, {"measurement": "MIC of antibiotic in the presence of 4 μg/ml of NAB 7061", "setting": "C. freundii ATCC8090", "value": "0.023 to 0.032", "unit": "mg/L"}, {"measurement": "Sensitization factor to antibiotic (MIC without / with 4 μg/ml of NAB 7061)", "setting": "C. freundii ATCC8090", "value": "500-1000"}, {"measurement": "Sensitization factor to antibiotic (MIC without / with 4 μg/ml of NAB 7061)", "setting": "K. pneumoniae ATCC13883", "value": "250-500"}, {"measurement": "MIC of antibiotic in the presence of 4 μg/ml of NAB 7061", "setting": "E. coli ATCC25922", "value": "0.016 to 0.047", "unit": "mg/L"}, {"measurement": "Sensitization factor to antibiotic (MIC without / with 4 μg/ml of NAB 7061)", "setting": "E. coli ATCC25922", "value": "250-750"}, {"measurement": "Sensitization factor to antibiotic (MIC without / with 4 μg/ml of NAB 7061)", "setting": "Ac. baumannii ATCC19606", "value": "24-32"}, {"measurement": "MIC of antibiotic in the presence of 4 μg/ml of NAB 7061", "setting": "Ac. baumannii F263", "value": "0.032 to 0.19", "unit": "mg/L"}, {"measurement": "Sensitization factor to antibiotic (MIC without / with 4 μg/ml of NAB 7061)", "setting": "Ac. baumannii F264", "value": 32}, {"measurement": "MIC of antibiotic in the presence of 4 μg/ml of NAB 7061", "setting": "E. coli CCUG41424", "value": "0.064 to 0.094", "unit": "mg/L"}, {"measurement": "Sensitization factor to antibiotic (MIC without / with 4 μg/ml of NAB 7061)", "setting": "E. coli CCUG41424", "value": "85-94"}, {"measurement": "MIC of antibiotic in the presence of 4 μg/ml of NAB 7061", "setting": "E. coli CCUG41432", "value": 0.032, "unit": "mg/L"}, {"measurement": "Sensitization factor to antibiotic (MIC without / with 4 μg/ml of NAB 7061)", "setting": "E. coli CCUG41432", "value": "180-250"}, {"measurement": "MIC of antibiotic in the presence of 4 μg/ml of NAB 7061", "setting": "E. coli CCUG41425", "value": "0.016 to 0.023", "unit": "mg/L"}, {"measurement": "Sensitization factor to antibiotic (MIC without / with 4 μg/ml of NAB 7061)", "setting": "E. coli CCUG41425", "value": "200-260"}, {"measurement": "MIC of antibiotic in the presence of 4 μg/ml of NAB 7061", "setting": "E. coli NCTC13353", "value": 0.064, "unit": "mg/L"}, {"measurement": "MIC of antibiotic in the presence of 4 μg/ml of NAB 7061", "setting": "E. coli CCUG41427", "value": "0.032 to 0.064", "unit": "mg/L"}, {"measurement": "Sensitization factor to antibiotic (MIC without / with 4 μg/ml of NAB 7061)", "setting": "E. coli CCUG41427", "value": "100-250"}, {"measurement": "MIC of antibiotic in the presence of 4 μg/ml of NAB 7061", "setting": "E. coli CCUG41429", "value": 0.032, "unit": "mg/L"}, {"measurement": "MIC of antibiotic in the presence of 4 μg/ml of NAB 7061", "setting": "E. coli NCTC13351", "value": "0.032 to 0.047", "unit": "mg/L"}, {"measurement": "Sensitization factor to antibiotic (MIC without / with 4 μg/ml of NAB 7061)", "setting": "E. coli NCTC13351", "value": "340-500"}, {"measurement": "MIC of antibiotic in the presence of 4 μg/ml of NAB 7061", "setting": "E. coli CCUG41421", "value": "0.032 to 0.064", "unit": "mg/L"}, {"measurement": "Sensitization factor to antibiotic (MIC without / with 4 μg/ml of NAB 7061)", "setting": "E. coli CCUG41422", "value": "170-256"}, {"measurement": "MIC of antibiotic in the presence of 4 μg/ml of NAB 7061", "setting": "E. coli IH3080", "value": "0.023 to 0.047", "unit": "mg/L"}, {"measurement": "Sensitization factor to antibiotic (MIC without / with 4 μg/ml of NAB 7061)", "setting": "E. coli IH3080", "value": "170-350"}, {"measurement": "MIC of antibiotic in the presence of NAB739", "setting": "A. baumannii F264; NAB 739 0 μg/ml", "value": 12, "unit": "mg/L"}, {"measurement": "MIC of antibiotic in the presence of NAB739", "setting": "A. baumannii F264; NAB 739 0.5 μg/ml", "value": 0.094, "unit": "mg/L"}, {"measurement": "MIC of antibiotic in the presence of NAB739", "setting": "A. baumannii F264; NAB 739 1 μg/ml", "value": 0.016, "unit": "mg/L"}, {"measurement": "MIC of antibiotic in the presence of NAB739", "setting": "A. baumannii F264; NAB 739 […]", "value": 0.38, "unit": "mg/L"}]}]}
